Laboratory results as given in patent US20200207782A1, “CHEMICALLY ACTIVATED WATER-SOLUBLE PRODRUG” (SUMITOMO DAINIPPON PHARMA CO., LTD, priority 2017, published 2020).
Several values for one entry are separate records, joined by “and”; a condition that tells them apart may be missing. Equal values may be shown once. Where a name gives a salt, the structure may show the parent alone.

How the values were obtained:
[1] = Solution stability test (residual ratio and generation of active form in buffers of pH 2.0 to 9.0); format: physicochemical; set-up: Rate of generation of active form after 24 hours in buffer with pH of 7.4: tested at 25 µM; settings: for Residual ratio / Rate of generation of active form after 24 hours in buffer with pH of 7.4: 25° C.; for Residual ratio: 25 umol/L; for Degradation behaviour in buffers (in words): pH 2.0 to 9.0; for Rate of generation of active form after 24 hours in buffer with pH of 7.4: pH 7.4 buffer
Method: The test compounds were incubated at 25° C. at a concentration of 25 umol/L in a buffer prepared to have a pH of 2.0, 3.0, 5.0, 7.4, and 9.0. The compounds were measured by HPLC after 0, 3, 6, 9, 12, and 24 hours.
The buffers used at each pH are the following. • pH 2.0: 50 mmol/L glycine buffer • pH 3.0: 50 mmol/L citrate buffer • pH 5.0: 50 mmol/L citrate buffer • pH 7.4: 50 mmol/L phosphate buffer • pH 9.0: 50 mmol/L glycine buffer
The measurement conditions for HPLC are the following.
The yield of the Example and Reference Example compounds and active forms is calculated with each of the peak area of the Example and Reference Example compounds at 0 minutes and the peak area upon dissolution of the corresponding active form at 100 umol/L as 100%. The yield is denoted in terms of %

[2] = physchem; settings: thermodynamic from solid; for solubility at 24 h: pH 2, aqueous buffer
Method: The solubility of the water-soluble prodrugs described in the Examples and the Reference Examples was measured. […] The filtrate was measured by HPLC.

Structure (SMILES) | Residual ratio ([1]; pH2.0 buffer, 0 hr) [%] | Degradation behaviour in buffers (in words) [1] | Residual ratio ([1]; pH3.0 buffer, 0 hr) [%] | Residual ratio ([1]; pH3.0 buffer, 3 hr) [%] | Residual ratio ([1]; pH3.0 buffer, 6 hr) [%] | Residual ratio ([1]; pH3.0 buffer, 9 hr) [%] | Residual ratio ([1]; pH3.0 buffer, 12 hr) [%] | Residual ratio ([1]; pH3.0 buffer, 24 hr) [%] | Residual ratio ([1]; pH5.0 buffer, 0 hr) [%] | Residual ratio ([1]; pH5.0 buffer, 3 hr) [%] | Residual ratio ([1]; pH5.0 buffer, 6 hr) [%] | Residual ratio ([1]; pH5.0 buffer, 9 hr) [%] | Residual ratio ([1]; pH5.0 buffer, 12 hr) [%] | Residual ratio ([1]; pH7.4 buffer, 0 hr) [%] | Residual ratio ([1]; pH7.4 buffer, 3 hr) [%] | Residual ratio ([1]; pH7.4 buffer, 6 hr) [%] | Residual ratio ([1]; pH7.4 buffer, 9 hr) [%] | Residual ratio ([1]; pH7.4 buffer, 12 hr) [%] | Stability in solution (in words) ([1]; pH of 2.0, 25° C.) | Stability in solution (in words) ([1]; pH of 3.0, 25° C.) | further results
NCCCNC(=O)Oc1c(OC(=O)NCCCN)c(-c2ccccc2)c2c(c1-c1ccccc1)OCO2 [Example 6, 4,7-Diphenyl-1,3-benzodioxole-5,6-diyl bis[(3-aminopropyl)carbamate]dihydrochloride] | 100 | pH dependent and chemical degradation progressed | 100 | 100 | 100 | 100 | 100 | 100 | 100 | 100 | 99.8 | 99.6 | 99.5 | 96.8 | 65.8 | 45.2 | 31.4 | 22.2 | very stable | very stable | Residual ratio ([1]; pH2.0 buffer, 3 hr): 100%; Residual ratio ([1]; pH2.0 buffer, 6 hr): 100%; Residual ratio ([1]; pH2.0 buffer, 9 hr): 100%; Residual ratio ([1]; pH2.0 buffer, 12 hr): 100%; Residual ratio ([1]; pH2.0 buffer, 24 hr): 100%; Residual ratio ([1]; pH5.0 buffer, 24 hr): 99.5%; Residual ratio ([1]; pH7.4 buffer, 24 hr): 17% and 16.5%; Residual ratio ([1]; pH9.0 buffer, 0 hr): 10.4%; Residual ratio ([1]; pH9.0 buffer, 3 hr): 0.4%; Residual ratio ([1]; pH9.0 buffer, 6 hr): 0.7%; Residual ratio ([1]; pH9.0 buffer, 9 hr): 0.7%; Residual ratio ([1]; pH9.0 buffer, 12 hr): 0.9%; Residual ratio ([1]; pH9.0 buffer, 24 hr): 0.9%; Stability in solution (in words) ([1]; pH of 5.0, 25° C.): very stable; solubility at 24 h [2]: > 10000 µg/mL
CN1CC[C@H](c2c(OC(=O)N(C)CCN)cc(O)c3c(=O)cc(-c4ccccc4Cl)oc23)[C@H](O)C1 [Example 8, 2-(2-chlorophenyl)-5-hydroxy-8-[(3S,4R)-3-hydroxy-1-methylpiperidin-4-yl]-4-oxo-4H-chromen-7-yl (2-aminoethyl) methylcarbamate ditrifluoroacetate] | 100 | pH dependent and chemical degradation progressed | 100 | 100 | 100 | 100 | 100 | 100 | 100 | 98.2 | 96.1 | 94.4 | 92.4 | 76.4 | 0.1 | 0.0 | 0.1 | 0.2 | sufficient stability | sufficient stability | Residual ratio ([1]; pH2.0 buffer, 3 hr): 100%; Residual ratio ([1]; pH2.0 buffer, 6 hr): 100%; Residual ratio ([1]; pH2.0 buffer, 9 hr): 100%; Residual ratio ([1]; pH2.0 buffer, 12 hr): 100%; Residual ratio ([1]; pH2.0 buffer, 24 hr): 100%; Residual ratio ([1]; pH5.0 buffer, 24 hr): 85% and 85.2%; Residual ratio ([1]; pH7.4 buffer, 24 hr): 0.5%; Rate of generation of active form after 24 hours in buffer with pH of 7.4 [1]: 88%; Residual ratio ([1]; pH9.0 buffer, 0 hr): 9.7%; Residual ratio ([1]; pH9.0 buffer, 3 hr): 0.2%; Residual ratio ([1]; pH9.0 buffer, 6 hr): 0.2%; Residual ratio ([1]; pH9.0 buffer, 9 hr): 0.1%; Residual ratio ([1]; pH9.0 buffer, 12 hr): 0.1%; Residual ratio ([1]; pH9.0 buffer, 24 hr): 0.0%; solubility ([2]; pH 5, aqueous buffer): > 10000 µg/mL
C[C@H]1COc2c1c(OC(=O)NCCNCC(=O)O)c(OC(=O)NCCNCC(=O)O)c1c3c(ccc21)C(C)(C)CCC3 [Example 12, 2,2′-{[(1R)-1,6,6-trimethyl-1,2,6,7,8,9-hexahydrophenanthro [1,2-b]furan-10,11-diyl]bis(oxycarbonylazanediylethane-2,1-diylazanediyl)}diacetic acid dihydrochloride] | 100 | pH dependent and chemical degradation progressed | 100 | 99.2 | 98.9 | 98.6 | 98.4 | 98.3 | 100 | 99.1 | 98.1 | 97.1 | 96.4 | 100 | 9.8 | 1.7 | 1.4 | 0 | stable | stable | Residual ratio ([1]; pH2.0 buffer, 3 hr): 99.4%; Residual ratio ([1]; pH2.0 buffer, 6 hr): 98.9%; Residual ratio ([1]; pH2.0 buffer, 9 hr): 98.7%; Residual ratio ([1]; pH2.0 buffer, 12 hr): 98.5%; Residual ratio ([1]; pH2.0 buffer, 24 hr): 98.5%; Residual ratio ([1]; pH5.0 buffer, 24 hr, dihydrochloride): 93% and 93.3%; Residual ratio ([1]; pH7.4 buffer, 24 hr): 0%; Rate of generation of active form after 24 hours in buffer with pH of 7.4 [1]: 11%; solubility at 24 h [2]: > 10000 µg/mL
C[C@H]1COc2c1c(OC(=O)NCCCNCC(=O)O)c(OC(=O)NCCCNCC(=O)O)c1c3c(ccc21)C(C)(C)CCC3 [Example 13, 2,2′-{[(1R)-1,6,6-trimethyl-1,2,6,7,8,9-hexahydrophenanthro[1,2-b]furan-10,11-diyl]bis(oxycarbonylazanediylpropane-3,1-diylazanediyl)}diacetic acid dihydrochloride] | – | pH dependent and chemical degradation progressed | 100 | 100 | 100 | 99.8 | 99.6 | 100 | 100 | 99.4 | 99.2 | 99.0 | 98.6 | 100 | 61.8 | 42.6 | 28.5 | 19.1 | stable | stable | Residual ratio ([1]; pH5.0 buffer, 24 hr): 98.4%; Residual ratio ([1]; pH7.4 buffer, 24 hr, dihydrochloride): 6% and 6.1%; Rate of generation of active form after 24 hours in buffer with pH of 7.4 [1]: 5%; Residual ratio ([1]; pH9.0 buffer, 0 hr): 100%; Residual ratio ([1]; pH9.0 buffer, 3 hr): 99.7%; Residual ratio ([1]; pH9.0 buffer, 6 hr): 99.4%; Residual ratio ([1]; pH9.0 buffer, 9 hr): 99.3%; Residual ratio ([1]; pH9.0 buffer, 12 hr): 99.1%; Residual ratio ([1]; pH9.0 buffer, 24 hr): 100%; Stability in solution (in words) ([1]; pH of 5.0, 25° C.): stable; solubility at 24 h [2]: > 10000 µg/mL
